For this assay, the target named is T1, KV7.1 (KCNQ1) channel, IK(S) (Rattus norvegicus, UniProt Q9Z0N7).
T1 construct: native IK(S) in H9c2 cells
T1 sequence (Q9Z0N7 1-669): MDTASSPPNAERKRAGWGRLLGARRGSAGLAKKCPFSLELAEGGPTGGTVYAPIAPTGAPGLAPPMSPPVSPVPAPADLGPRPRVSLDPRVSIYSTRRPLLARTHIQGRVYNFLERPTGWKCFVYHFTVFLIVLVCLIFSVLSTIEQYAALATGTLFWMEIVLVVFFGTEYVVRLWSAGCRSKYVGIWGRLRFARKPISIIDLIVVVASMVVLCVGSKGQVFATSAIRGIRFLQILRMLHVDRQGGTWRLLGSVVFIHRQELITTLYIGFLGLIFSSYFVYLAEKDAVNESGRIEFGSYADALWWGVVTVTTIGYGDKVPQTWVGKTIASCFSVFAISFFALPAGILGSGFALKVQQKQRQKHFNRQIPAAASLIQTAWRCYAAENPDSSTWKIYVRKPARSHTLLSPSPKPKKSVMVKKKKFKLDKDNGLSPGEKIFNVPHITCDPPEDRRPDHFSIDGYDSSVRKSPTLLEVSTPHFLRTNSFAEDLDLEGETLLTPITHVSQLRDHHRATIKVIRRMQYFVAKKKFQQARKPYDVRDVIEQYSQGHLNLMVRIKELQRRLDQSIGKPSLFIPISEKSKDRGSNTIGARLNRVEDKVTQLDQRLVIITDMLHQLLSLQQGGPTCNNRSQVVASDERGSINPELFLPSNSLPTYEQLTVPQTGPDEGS
In words: whole-cell patch clamp of native IK(S) in H9c2 cells. Type of assay: cell-based.

The results in this text go back to paper PMC7084345, “Differential Inhibitory Actions of Multitargeted Tyrosine Kinase Inhibitors on Different Ionic Current Types in Cardiomyocytes” (International Journal of Molecular Sciences, 2020).

Structures are written as SMILES.

Usually IC50 stands for the concentration that inhibits the measured activity by half. Higher therefore signals a need for much substance. In turn, `CS(=O)(=O)CCNCc1ccc(-c2ccc3ncnc(Nc4ccc(OCc5cccc(F)c5)c(Cl)c4)c3c2)o1` [LAP, lapatinib] yielded an IC50 of 1840 nM.
